From US11780840B2 (Incyte Corporation, priority 2020, dated 2023)
pIC50: −log10 of the molar value.

Columns and labels:
[1] = target: T1, catalytic domain (JH1, amino acids 826-1132) of human JAK2 (Homo sapiens, UniProt O60674); test: JAK2 LanthaScreen JH1 Binding Assay; conditions: JAK2 JH1 (1.5 nM), 50 nM fluorescent JAK2-JH1 tracer, 2 hours at 25° C.; read-out: JH1 BIND
T1 construct: catalytic domain (JH1, amino acids 826-1132) of human JAK2; FLAG (N); purchased Carna Biosciences 08-445-20N; host or cells: baculovirus expression system
Procedure, shortened: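 TR-FRET tracer-displacement format: compound IC50 from four-parameter curves after 2 h at 25° C. Reaction held 1.5 nM biotinylated, FLAG-tagged JH1 (aa 826-1132), 50 nM tracer, 0.5 nM Streptavidin-Tb, pH 7.5 Tris buffer; 2 mM ATP set nonspecific background.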

[2] = target: T2, pseudo-kinase domain (JH2, amino-acids 536-812 with 3 surface mutations W659A, W777A, F794H) of human Wild Type JAK2 (Homo sapiens, UniProt O60674, F794H/W659A/W777A); test: JAK2 LanthaScreen JH2-WT Binding Assay; conditions: JAK2 JH2-WT (0.145 nM), 50 nM Fluorescent JAK2-JH2 Tracer, 1 hour at 25° C.; read-out: JH2 BIND WT
T2 construct: pseudo-kinase domain (JH2, amino-acids 536-812 with 3 surface mutations W659A, W777A, F794H); His (C); Avi (biotinylated) (C); purchased BPS Bioscience 79463; host or cells: baculovirus expression system
Procedure, shortened: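 TR-FRET tracer displacement: IC50 from four-parameter dose-response fit. Reaction: compound, 0.145 nM biotinylated JH2 protein from baculovirus, 0.25 nM streptavidin-Tb and 50 nM tracer, 1 h at 25° C, 50 mM Tris pH 7.5 buffer. 2 mM ATP gave non-specific binding.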

[3] = target: T3, pseudo-kinase domain (JH2, amino-acids 536-812 with 3 surface mutations W659A, W777A, F794H) of human V617F mutant JAK2 (Homo sapiens, UniProt O60674, F794H/V617F/W659A/W777A); test: JAK2 LanthaScreen JH2-V617F Binding Assay; conditions: JAK2 JH2-V617F (0.26 nM), 50 nM Fluorescent JAK2-JH2 Tracer, 1 hour at 25° C.; read-out: JH2 BIND V617F
T3 construct: pseudo-kinase domain (JH2, amino-acids 536-812 with 3 surface mutations W659A, W777A, F794H); His (C); Avi (biotinylated) (C); purchased BPS Bioscience 79498; host or cells: baculovirus expression system
Procedure, shortened: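 Binding was measured as TR-FRET displacement of 50 nM tracer from 0.26 nM biotinylated His-Avi protein, incubated one hour at 25° C; IC50 from a four-parameter fit.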

T1 sequence (O60674 826-1132): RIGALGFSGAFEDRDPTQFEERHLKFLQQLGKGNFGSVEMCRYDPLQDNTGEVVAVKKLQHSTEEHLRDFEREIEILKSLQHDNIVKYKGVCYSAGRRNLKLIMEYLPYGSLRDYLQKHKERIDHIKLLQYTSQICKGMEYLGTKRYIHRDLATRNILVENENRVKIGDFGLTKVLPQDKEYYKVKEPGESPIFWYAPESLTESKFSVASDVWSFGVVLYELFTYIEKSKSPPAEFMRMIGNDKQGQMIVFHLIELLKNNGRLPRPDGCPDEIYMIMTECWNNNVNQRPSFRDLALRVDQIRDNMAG
T3 sequence (O60674 536-812 V617F/W659A/W777A/F794H): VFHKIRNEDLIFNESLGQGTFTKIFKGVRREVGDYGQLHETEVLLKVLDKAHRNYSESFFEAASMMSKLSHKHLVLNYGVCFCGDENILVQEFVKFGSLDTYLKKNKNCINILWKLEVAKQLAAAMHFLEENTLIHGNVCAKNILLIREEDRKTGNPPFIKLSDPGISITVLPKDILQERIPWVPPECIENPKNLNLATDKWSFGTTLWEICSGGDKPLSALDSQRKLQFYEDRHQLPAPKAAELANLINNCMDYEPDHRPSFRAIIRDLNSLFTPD
T2 sequence (O60674 536-812 W659A/W777A/F794H): as the sequence (O60674 536-812 V617F/W659A/W777A/F794H) above, with F82V counted along it

Compound	pIC50 [1]	pIC50 [2]	pIC50 [3]
Cn1cc(-c2[nH]c3ncc4c(c3c2-c2ccc3c(cnn3C)c2)n(C2CCOCC2)c(=O)n4C)cn1 [Example 48, 3-Methyl-8-(1-methyl-1H-indazol-5-yl)-7-(1-methyl-1H-pyrazol-4-yl)-1-(tetrahydro-2H-pyran-4-yl)-3,6-dihydroimidazo[4,5-d]pyrrolo[2,3-b]pyridin-2(1H)-one]	< 6.00	≥ 8.00	≥ 8.00
Cn1c(=O)n(C2CCOCC2)c2c3c(-c4ccc(C5(C#N)CC5)cc4)c(-c4ccc(CN5CCC(S(C)(=O)=O)CC5)cc4)[nH]c3ncc21 [Example 49, 1-(4-(3-Methyl-7-(4-((4-(methylsulfonyl)piperidin-1-yl)methyl)phenyl)-2-oxo-1-(tetrahydro-2H-pyran-4-yl)-1,2,3,6-tetrahydroimidazo [4,5-d]pyrrolo[2,3-b]pyridin-8-yl)phenyl)cyclo-propane-1-carbonitrile]	6.30 to 7.00	≥ 8.00	≥ 8.00
CC(C)n1c(=O)n(C)c2cnc3[nH]c(-c4cnn(CC(C)(C)O)c4)c(-c4ccc(C5(C#N)CC5)cc4)c3c21 [Example 50, 1-(4-(7-(1-(2-Hydroxy-2-methylpropyl)-1H-pyrazol-4-yl)-1-isopropyl-3-methyl-2-oxo-1,2,3,6-tetrahydroimidazo [4,5-d]pyrrolo[2,3-b]pyridin-8-yl)phenyl) cyclopropane-1-carbonitrile]	6.00 to 6.30	≥ 8.00	≥ 8.00
Cn1c(=O)n(C2CCOCC2)c2c3c(-c4ccc(C5(N6CCOCC6)CC5)cc4)c(-c4cnn(CC(C)(C)O)c4)[nH]c3ncc21 [Example 51, 7-(1-(2-Hydroxy-2-methylpropyl)-1H-pyrazol-4-yl)-3-methyl-8-(4-(1-morpholinocyclo-propyl)phenyl)-1-(tetrahydro-2H-pyran-4-yl)-3,6-dihydroimidazo[4,5-d]pyrrolo[2,3-b]pyridin-2(1H)-one]	< 6.00	≥ 8.00	≥ 8.00
Cn1ncc2cc(-c3c(-c4ccc(CN5CCC(S(C)(=O)=O)CC5)cc4)[nH]c4ncc5c(c34)n(C3CCCC3)c(=O)n5C)ccc21 [Example 52, 1-Cyclopentyl-3-methyl-8-(1-methyl-1H-indazol-5-yl)-7-(4-((4-(methylsulfonyl)piperidin-1-yl)methyl)phenyl)-3,6-dihydroimidazo[4,5-d]pyrrolo[2,3-b]pyridin-2(1H)-one]	6.30 to 7.00	≥ 8.00	≥ 8.00
Cn1ncc2cc(-c3c(-c4cnn(Cc5ccncc5)c4)[nH]c4ncc5c(c34)n(C3CCCC3)c(=O)n5C)ccc21 [Example 53, 1-Cyclopentyl-3-methyl-8-(1-methyl-1H-indazol-5-yl)-7-(1-(pyridin-4-ylmethyl)-1H-pyrazol-4-yl)-3,6-dihydroimidazo[4,5-d]pyrrolo[2,3-b]pyridin-2(1H)-one]	6.30 to 7.00	≥ 8.00	≥ 8.00
COCCn1cc(-c2[nH]c3ncc4c(c3c2-c2ccc3c(cnn3C)c2)n(C2CCCC2)c(=O)n4C)cn1 [Example 54, 1-Cyclopentyl-7-(1-(2-methoxyethyl)-1H-pyrazol-4-yl)-3-methyl-8-(1-methyl-1H-indazol-5-yl)-3,6-dihydroimidazo[4,5-d]pyrrolo[2,3-b] pyridin-2(1H)-one]	6.30 to 7.00	≥ 8.00	≥ 8.00
CC(C)n1c(=O)n(C)c2cnc3[nH]c(-c4cnn(CC(C)(C)O)c4)c(-c4ccc5c(cnn5C)c4)c3c21 [Example 55, 7-(1-(2-Hydroxy-2-methylpropyl)-1H-pyrazol-4-yl)-1-isopropyl-3-methyl-8-(1-methyl-1H-indazol-5-yl)-3,6-dihydroimidazo[4,5-d]pyrrolo[2,3-b] pyridin-2(1H)-one]	< 6.00	≥ 8.00	≥ 8.00
Cn1ncc2cc(-c3c(-c4cnn(CC(F)F)c4)[nH]c4ncc5c(c34)n(C3CCCC3)c(=O)n5C)ccc21 [Example 56, 1-Cyclopentyl-7-(1-(2,2-difluoroethyl)-1H-pyrazol-4-yl)-3-methyl-8-(1-methyl-1H-indazol-5-yl)-3,6-dihydroimidazo[4,5-d]pyrrolo[2,3-b]pyridin-2(1H)-one]	6.30 to 7.00	≥ 8.00	≥ 8.00
Cn1c(=O)n(C2CCCC2)c2c3c(-c4cc5cnccc5s4)c(-c4cnn(CC(F)F)c4)[nH]c3ncc21 [Example 57, 1-Cyclopentyl-7-(1-(2,2-difluoroethyl)-1H-pyrazol-4-yl)-3-methyl-8-(thieno[3,2-c]pyridin-2-yl)-3,6-dihydroimidazo[4,5-d]pyrrolo[2,3-b]pyridin-2(1H)-one]	6.30 to 7.00	≥ 8.00	≥ 8.00
Cn1c(=O)n([C@H]2CCCOC2)c2c3c(-c4ccccc4)c(-c4ccc(CN5CCC(S(C)(=O)=O)CC5)cc4)[nH]c3ncc21 [Example 58, (S)-3-Methyl-7-(4-((4-(methylsulfonyl)piperidin-1-yl)methyl)phenyl)-8-phenyl-1-(tetrahydro-2H-pyran-3-yl)-3,6-dihydroimidazo[4,5-d]pyrrolo[2,3-b]pyridin-2(1H)-one]	6.30 to 7.00	≥ 8.00	7.00 to 8.00
COc1ccc(-c2c(-c3cnn(Cc4ccncc4)c3)[nH]c3ncc4c(c23)n(C2CCCC2)c(=O)n4C)cc1 [Example 59, 1-Cyclopentyl-8-(4-methoxyphenyl)-3-methyl-7-(1-(pyridin-4-ylmethyl)-1H-pyrazol-4-yl)-3,6-dihydroimidazo[4,5-d]pyrrolo[2,3-b]pyridin-2(1H)-one]	6.30 to 7.00	≥ 8.00	≥ 8.00
Cn1ncc2cc(-c3c(-c4ccncc4)[nH]c4ncc5c(c34)n(C3CCCC3)c(=O)n5C)ccc21 [Example 60, 1-Cyclopentyl-3-methyl-8-(1-methyl-1H-indazol-5-yl)-7-(pyridin-4-yl)-3,6-dihydroimidazo[4,5-d]pyrrolo[2,3-b]pyridin-2(1H)-one]	< 6.00	≥ 8.00	≥ 8.00
Cn1ncc2cc(-c3c(-c4cccnc4)[nH]c4ncc5c(c34)n(C3CCCC3)c(=O)n5C)ccc21 [Example 61, 1-Cyclopentyl-3-methyl-8-(1-methyl-1H-indazol-5-yl)-7-(pyridin-3-yl)-3,6-dihydroimidazo[4,5-d]pyrrolo[2,3-b]pyridin-2(1H)-one]	< 6.00	≥ 8.00	≥ 8.00
COc1ccc(-c2[nH]c3ncc4c(c3c2-c2ccc3c(cnn3C)c2)n(C(C)C)c(=O)n4C)cn1 [Example 62, 1-Isopropyl-7-(6-methoxypyridin-3-yl)-3-methyl-8-(1-methyl-1H-indazol-5-yl)-3,6-dihydroimidazo[4,5-d]pyrrolo[2,3-b]pyridin-2(1H)-one]	< 6.00	7.00 to 8.00	7.00 to 8.00
COc1ccc(-c2[nH]c3ncc4c(c3c2-c2ccc3c(cnn3C)c2)n(C2CCOCC2)c(=O)n4C)cn1 [Example 63, 7-(6-Methoxypyridin-3-yl)-3-methyl-8-(1-methyl-1H-indazol-5-yl)-1-(tetrahydro-2H-pyran-4-yl)-3,6-dihydroimidazo[4,5-d]pyrrolo[2,3-b]pyridin-2(1H)-one]	< 6.00	≥ 8.00	≥ 8.00
COc1ccc(-c2[nH]c3ncc4c(c3c2-c2ccc3c(cnn3C)c2)n(C2CCCC2)c(=O)n4C)cn1 [Example 64, 1-Cyclopentyl-7-(6-methoxypyridin-3-yl)-3-methyl-8-(1-methyl-1H-indazol-5-yl)-3,6-dihydroimidazo[4,5-d]pyrrolo[2,3-b]pyridin-2(1H)-one]	< 6.00	≥ 8.00	7.00 to 8.00
CC(C)Oc1ccc(-c2[nH]c3ncc4c(c3c2-c2ccc3c(cnn3C)c2)n(C2CCCC2)c(=O)n4C)cn1 [Example 65, 1-Cyclopentyl-7-(6-isopropoxypyridin-3-yl)-3-methyl-8-(1-methyl-1H-indazol-5-yl)-3,6-dihydroimidazo[4,5-d]pyrrolo[2,3-b]pyridin-2(1H)-one]	< 6.00	7.00 to 8.00	7.00 to 8.00
Cn1ncc2cc(-c3c(-c4ccc(OC5CCOCC5)nc4)[nH]c4ncc5c(c34)n(C3CCCC3)c(=O)n5C)ccc21 [Example 66, 1-Cyclopentyl-3-methyl-8-(1-methyl-1H-indazol-5-yl)-7-(6-((tetrahydro-2H-pyran-4-yl)oxy)pyridin-3-yl)-3,6-dihydroimidazo[4,5-d]pyrrolo[2,3-b]pyridin-2(1H)-one]	< 6.00	7.00 to 8.00	7.00 to 8.00
